Values quoted from earlier work, collected in patent US8481574B2, “Compounds as cannabinoid receptor ligands” (priority 2006, dated 2013).

Assays:
animal models of pain = conditions: animal models of acute thermal pain, persistent pain, inflammatory pain and neuropathic pain
[1] = at fully efficacious doses
rodent models of pain = conditions: rodent models of neuropathic, incisional, and both chronic and acute inflammatory pain
rat = rat formalin model of persistent pain
microglia = conditions: in vitro
[2] = tested on: CB1 receptor knockout mice
[3] = tested on: apolipoprotein E knockout mice; conditions: low doses
mice = conditions: model for post-menopausal osteoporosis

CN1CCCCC1Cn1cc(C(=O)c2cc([N+](=O)[O-])ccc2I)c2ccccc21 (stereo not shown) [AM-1241]
analgesic efficacy (animal models of pain): robust analgesic efficacy | CB1 receptor-mediated CNS side effects [1]: devoid of typical CB1 receptor-mediated CNS side effects

COc1ccc2c(c1)c(CCN1CCOCC1)c(C)n2C(=O)c1cccc(Cl)c1Cl [GW405833]
efficacy in pain models (rodent models of pain): efficacious | CB1 receptor-mediated CNS side effects [1]: devoid of typical CB1 receptor-mediated CNS side effects

CCCCCCC(C)(C)c1cc(OC)c([C@@H]2C=C(CO)[C@@H]3C[C@H]2C3(C)C)c(OC)c1 [HU-308]
antinociceptive response (rat): elicits an antinociceptive response

CCCC(C)(C)c1ccc2c(c1)OC(C)(C)[C@@H]1CC=C(C)C[C@@H]21 [JWH-133]
effect on β-amyloid-induced microglial activation and neurotoxicity (microglia): abrogated β-amyloid-induced microglial activation and neurotoxicity

(−)-Δ^9-Tetrahydrocannabinol [Δ^9-THC]
analgesic efficacy [2]: retains some analgesic efficacy | effect on progression of atherosclerotic lesions [3]: slowed the progression of atherosclerotic lesions

SR144528
effect on osteoclast activity (osteoclast): inhibit osteoclast activity | effect on ovariectomy-induced bone loss (mice): reverse ovariectomy-induced bone loss
